Results: patent US20220135667A1, “THERAPEUTIC COMBINATIONS AND COMPOSITIONS FOR THE TREATMENT OF INFLAMMATORY BOWEL DISEASE (II)” (RIJSUNIVERSITEIT GRONINGEN, priority 2019, published 2022)

System: CD patients
Assay: prospective clinical intervention study of riboflavin in CD patients
Assay type: in vivo, human
Conditions: 100 mg riboflavin daily for 3 weeks
Method: In a prospective clinical intervention study, 70 CD patients were included and divided into two groups with (active) and without (quiescent) evidence of mucosal inflammation (defined by fecal calprotectin (FC) cut-off value: 200 μg/g). Patients received 100 mg riboflavin daily for 3 weeks. Clinical disease activity (Harvey-Bradshaw Index: HBI), inflammatory biomarkers (including interleukin 2) as well as fecal microbial composition (including pathogenic Enterobacteriaceae including E. coli) were analyzed before and after riboflavin intervention.

## Cc1cc2nc3c(=O)[nH]c(=O)nc-3n(C[C@H](O)[C@H](O)[C@H](O)CO)c2cc1C [riboflavin]
Patients with TNF-alpha inhibitor treatment (FIG. 4)
  fecal calprotectin: further reduction
Patients with TNF-alpha inhibitor treatment (FIG. 5)
  proinflammatory cytokine IL2: further reduction
Patients with TNF-alpha inhibitor treatment (FIG. 6)
  Enterobacteriaceae including E. coli (fecal microbial composition): further reduction
Patients with TNF-alpha inhibitor treatment, both active and quiescent disease, before vs after (FIG. 1-3)
  clinical disease activity (Harvey-Bradshaw Index: HBI): further reduced
Patients with mesalazine treatment (FIG. 1-3)
  clinical disease activity (Harvey-Bradshaw Index: HBI): not the case (not as pronounced as)
